Here are results for 12 substances from patent publication US20240083943A1, “VEGF-REGULATING PEPTIDES” (IDP DISCOVERY PHARMA, S.L., priority 2020, published 2024).

Positions of bridges follow the written chain, without caps; N, C: chain ends. Non-standard residues stand in square brackets, D forms with d. No end group written: not given here. formula (I), R19:CH3 = not defined here; formula (I) = not defined here

Experiment [1] has as its system VEGF protein in ARPE-19 human retinal pigment epithelia cells. As to the kind of experiment: VEGF ELISA of culture supernatant, CoCl2-induced hypoxia vs normoxia, ARPE-19 cells. It counts as cell-based. The following applies: for Relative VEGF (Hypoxia/Normoxia) / Relative VEGF (Hipoxia/Normoxia): peptide 20 μM; for Relative VEGF (Hypoxia/Normoxia): 24 hr, 300 μM CoCl2, Table 2, untreated ratio 2.02; for Effect on VEGF expression under hypoxia conditions (in words): compared with untreated cells; for Relative VEGF (Hipoxia/Normoxia): Table 3, untreated ratio 1.87. The method, then:
(§1) MDA-MB-231 human breast cancer cell lines, HaCat immortalized human keratinocyte cell line and ARPE-19 human retinal pigment epithelia (RPE) cell line were purchased from American Type Culture Collection (ATCC, Manassas, VA, USA). Human cells were routinely authenticated using genotype profiling according to the ATCC guidelines. ARPE-19 cells were maintained in DMEM/F12 medium with HEPES supplemented with 10% fetal calf serum and antibiotics.
(§2) A fresh stock solution 0.4 M CoCl2 was prepared in water and added to the medium to obtain the concentration of 50 μM for MDA-MB-231, 200 μM for HaCaT and 300 μM for ARPE-19 cells. Cells were incubated with respective CoCl2 concentration for 24 hr to mimic hypoxic conditions.
The VEGF-content of the supernatant of culture cells was measured by a VEGF-ELISA (Abcam; ab100662; Cambridge, UK) following the manufacturer's instructions. The range of detection of the ELISA was between 8.23 pg/ml and 6,000 pg/ml. […] The same procedure was used in the presence of the peptides of the invention.
(§3) RT-PCR experiments were repeated at least 2 times. For VEGF assays, the mean±S.D of 3 determinations carried out in triplicate were calculated. Statistical significance was determined using Mann-Whitney tests for comparisons of means in a SPPS statistical software for Microsoft Windows, release 6.0 (Professional Statistic, Chicago, IL, USA). Individual comparisons were made using Student's two-tailed, unpaired t-tests. Criterion for significance was P<0.05 for all comparisons.
The objective of this study was to determine the regulation of VEGF by the peptides in hypoxia induced conditions in ARPE-19 cell lines. The VEGF protein (using ELISA kit) was calculated in untreated cells in hypoxia vs. normoxia and a threshold of activity was set. Then, cells were treated with a solution of the corresponding peptide of the invention at 20 μM dissolved in cell culture medium alone (normoxia condition) or in the presence of CoCl2 (hypoxia conditions) and the ratio of VEGF protein amount was calculated. The peptides showing a VEGFhyp/VEGFnorm ratio higher than the ratio in untreated cells were considered as inducers of VEGF protein, while peptides providing a VEGFhyp/VEGFnorm ratio lower than the ratio in untreated cells were considered as reducers of VEGF protein, as reported in table 2.
(In general: In an ELISA, binding on a coated surface is turned into a signal by an enzyme label.)

In experiment [2] the test system is VEGF mRNA in ARPE-19 cells. As to the kind of experiment: Real time quantitative RT-PCR of VEGF mRNA in ARPE-19 cells. It counts as cell-based, human. Particulars: for VEGF mRNA level compared to untreated cells (in words): ARPE-19, 10 μM; for Relative Copy to Control / VEGF mRNA Copy/Copy million of Actine: ARPE-19, peptide 10 μM, 24 hr; for Relative Copy to Control: control = untreated normoxia (1). The method, then:
as §2
Extraction of RNA from indicated cells was performed using the NZY total RNA isolation kit (Nzytech, Lisboa, Portugal) and cDNA prepared using the NZY First-Strand cDNA Synthesis Kit (Nzytech). Primers were designed using Primer Blast software (NCBI) and obtained from Thermo-Fisher. mRNA expression levels were evaluated by qRT-PCR (QuantStudio 5 Real-Time PCR System, Applied Biosystems, Foster City, CA, USA) using SYBR green master mix (Applied Biosystems) and normalized to […]. The following primers were used in this study: β-Actin (forward: 5″-AGAAAATCTGGCACCACACC-3″ (SEQ ID NO: 32); reverse: 5″-GGGGTGTTGAAGGTCTCAAA-3″ (SEQ ID NO: 33)); VGFA (forward: 5″-TACTGCCATCCAATCGAGAC-3″ (SEQ ID NO: 34); reverse: 5″-GCA TGG TGA TGT TGG ACT-3″ (SEQ ID NO: 35)).
as §3
The VEGF expression regulation was also determined by […] in ARPE-19 cells treated with the peptide SEQ ID NO: 17 at 10 μM for 24 hr in normoxia and hypoxia conditions.

The test system of experiment [3] is CD31 staining (blood vessels) in MDA-MB-231 tumours. As to the kind of experiment: Angiogenesis reduction in vivo: CD31 immunohistochemistry of MDA-MB-231 breast tumour xenografts. Particulars: MDA-MB-231 xenograft in athymic mice, s.c. 2x week, vs vehicle. The method, then: MDA-MB-231 cells were inoculated (2.5×10^6 cells/animal) in 100 μl of DMEM into the mammary fat pad of athymic mice. When tumours reached a volume of 100 mm3, animals were divided in groups and treated 2× week by s.c. administration with vehicle (2% Tween-20 in 0.9% NaCl sterile, control group) and 2× week by s.c. administration with SEQ ID NO:17 (treated group). At sacrifice, tumours were collected, weighed and formalin-fixed (24 h). Formalin-fixed tumours were processed for paraffin-embedded tissue blocks, which were sent for analysis to the Dept. Bioquimica y Biologic Molecular A, Facultad de Veterinaria, Universidad de Murcia.
Hematoxylin, eosin, diaminobenzidine tetrahydrochloride and hydrogen peroxide were obtained from Merck (Madrid, Spain). The antibody mouse monoclonal anti-CD31 was obtained from Novus.
Tumours washed in PBS, fixed in 10% formalin and embedded in paraffin.
Haematoxylin and eosin (H&E) staining was performed on serial sections of paraffin embedded tissues. For immunohistochemistry, paraffin sections were deparaffinized and subjected to antigen retrieval in sodium citrate buffer (pH 6.0). Tissue endogenous peroxidase was inactivated with 5% hydrogen peroxide. Slides were blocked and incubated with primary antibodies overnight at 4 C. […] The stained slides were scanned using a SCN400F Leica scanner and images were analysed using ImageJ software.

Experiment [4] deals with VEGF protein in HaCat immortalized human keratinocyte cells. As to the kind of experiment: VEGF ELISA of culture supernatant, CoCl2-induced hypoxia vs normoxia, HaCat cells. The class given is cell-based. The following applies: peptide 10 μM, untreated ratio 1.15.
Text: as §1
(§4) MDA-MB-231 and HaCaT were maintained in DMEM medium with glucose 4.5gr/L, glutamine and pyruvate 2 mM and supplemented with 10% fetal calf serum and antibiotics.
as §2
(§5) The VEGF-content of the supernatant of culture cells was measured by a VEGF-ELISA (Abcam; ab100662; Cambridge, UK) following the manufacturer's instructions. […]
(§6) RT-PCR experiments were repeated at least 2 times. For VEGF assays, the mean±S.D of 3 determinations carried out in triplicate were calculated. Statistical significance was determined using Mann-Whitney tests for comparisons of means in a SPPS statistical software for Microsoft Windows, release 6.0 (Professional Statistic, Chicago, IL, USA). […]

In experiment [5] the test system is VEGF protein in MDA-MB-231 human breast cancer cells. As to the kind of experiment: VEGF ELISA of culture supernatant, CoCl2-induced hypoxia vs normoxia, MDA-MB-231 cells. The class given is cell-based. The following applies: peptide 10 μM, untreated ratio 1.72.
Text: as §1, §4, §2, §5, §6

Turning to “SEQ ID NO: 29: peptide of the second aspect with linker biradical, derived from SEQ ID NO: 22 (RSRRSKE[formula (I), R19:CH3]EVFYEL[formula (I), R19:CH3]HQ-NH2; staple 8-15; reading uncertain; also: staple: ‑(CH2)6‑CH:CH‑(CH2)3‑)”, the “Relative VEGF (Hypoxia/Normoxia)” value in experiment [1] worked out at 2.60.

As for “SEQ ID NO: 20: cross-linked (stapled) peptide derived from SEQ ID NO: 1 (LDKASV[formula (I), R19:CH3]RLTISY[formula (I), R19:CH3]RVRK-NH2; staple 7-14; reading uncertain; also: staple: ‑(CH2)6‑CH:CH‑(CH2)3‑)”, in experiment [1], the “Relative VEGF (Hypoxia/Normoxia)” value came out at 0.99.

Regarding “LDKASVMRLTISYLRVRK [SEQ ID NO: 13, lineal peptide, 18 amino acids]”, in experiment [1], the “Effect on VEGF expression under hypoxia conditions (in words)” value is recorded as “increase VEGF expression under hypoxia conditions” and the “Relative VEGF (Hypoxia/Normoxia)” value amounted to 2.59.

For “SEQ ID NO: 21: cross-linked (stapled) peptide derived from SEQ ID NO: 1 (LDKASVM[formula (I), R19:CH3]LTISYL[formula (I), R19:CH3]VRK-NH2; staple 8-15; reading uncertain; also: staple: ‑(CH2)6‑CH:CH‑(CH2)3‑)”, in experiment [1], the “Relative VEGF (Hypoxia/Normoxia)” value is on record as 1.36.

Consider “KASVMRLTISYLRVR [SEQ ID NO: 36, 15 amino acid lineal peptide disclosed in WO2006038208(A2), reference compound]”, for which, in experiment [1], the “Effect on VEGF expression under hypoxia conditions (in words)” value was “no effect in the modulation of VEGF expression” and the “Relative VEGF (Hipoxia/Normoxia)” value was 1.89.

Take “SEQ ID NO: 17: cross-linked (stapled) peptide; differs from SEQ ID NO: 16 only in the C-terminal end (KASVM[formula (I), R19:CH3]LTISYL[formula (I), R19:CH3]VR-OH; staple 6-13; reading uncertain; also: staple: ‑(CH2)6‑CH:CH‑(CH2)3‑)”: the “Relative VEGF (Hypoxia/Normoxia)” value in experiment [1] amounted to 1.02. Besides, the “VEGF mRNA level compared to untreated cells (in words)” value in experiment [2] (hypoxia) is “reduced significantly the mRNA level”; in experiment [2] (normoxia) it was “just a slide reduction”. In addition, the “Relative Copy to Control” value in experiment [2] (hypoxia, untreated hypoxia 4.50) is listed as 0.76; in experiment [2] (normoxia), 0.93. Besides, the “VEGF mRNA Copy/Copy million of Actine” value was 25873 Copy/Copy million of Actine in experiment [2] (hypoxia, untreated hypoxia 152782) and 31454 Copy/Copy million of Actine in experiment [2] (normoxia, untreated normoxia 33918). In experiment [3], the “CD31 expression in treated tumours compared with the control (immunohistochemistry)” value is given as “statistically significant decrease of CD31 expression”.

For the substance “SEQ ID NO: 30: peptide of the second aspect with linker biradical, derived from SEQ ID NO: 22 (RSRRSKESE[formula (I)]FYELAH[formula (I)]-NH2; staple 10-17; reading uncertain; also: staple: ‑(CH2)6‑CH:CH‑(CH2)3‑)”, the “Relative VEGF (Hypoxia/Normoxia)” value in experiment [1] is given as 2.70.

Consider “SEQ ID NO: 14: cross-linked (stapled) peptide derived from SEQ ID NO: 1 (KA[formula (I), R19:CH3]VMRLTI[formula (I), R19:CH3]YLRVR-NH2; staple 3-10; reading uncertain; also: staple: ‑(CH2)6‑CH:CH‑(CH2)3‑)”, for which, in experiment [1], the “Relative VEGF (Hypoxia/Normoxia)” value is given as 1.41.

With “SEQ ID NO: 16: cross-linked (stapled) peptide derived from SEQ ID NO: 1 (KASVM[formula (I), R19:CH3]LTISYL[formula (I), R19:CH3]VR-NH2; staple 6-13; reading uncertain; also: staple: ‑(CH2)6‑CH:CH‑(CH2)3‑)”, the “Relative VEGF (Hypoxia/Normoxia)” value in experiment [1] was determined as 1.01; in experiment [4], 0.88; in experiment [5], 1.30.

As to “SEQ ID NO: 19: cross-linked (stapled) peptide derived from SEQ ID NO: 1 (LDKA[formula (I), R19:CH3]VMRLTI[formula (I), R19:CH3]YLRVRK-NH2; staple 5-12; reading uncertain; also: staple: ‑(CH2)6‑CH:CH‑(CH2)3‑)”, in experiment [1], the “Relative VEGF (Hypoxia/Normoxia)” value is on record as 1.39.

In the case of “SEQ ID NO: 31: peptide of the second aspect with linker biradical, derived from SEQ ID NO: 22 (RS[formula (I)]RSKESE[formula (I)]FYELAHQLP-NH2; staple 3-10; reading uncertain; also: staple: ‑(CH2)6‑CH:CH‑(CH2)3‑)”, the “Relative VEGF (Hypoxia/Normoxia)” value in experiment [1] was determined as 2.64.

With “KASVMRLTISYLRV [SEQ ID NO: 37, 14 amino acid lineal peptide]”, in experiment [1], the “Relative VEGF (Hipoxia/Normoxia)” value is 2.02.
